Experimental findings from patent EP3995521A1, “BLOCKED POLYISOCYANATE COMPOSITION, HYDROPHILIC POLYISOCYANATE COMPOSITION, RESIN COMPOSITION, RESIN FILM AND LAMINATED BODY” (Asahi Kasei Kabushiki Kaisha, priority 2019, dated 2021) are described below.

A short description of the data set: Surface tension of dispersing agent at 25°C by Wilhelmy method (Physical property 1-5). The settings on record: aqueous solution of 0.1% by mass of the dispersing agent. Type of data set: physicochemical. The method, then: The surface tension may be determined by the following method, for example. An anionic dispersion agent is diluted with water to prepare an aqueous solution consisting of: 0.1% by mass of the anionic dispersion agent, relative to the total mass of the aqueous solution; and water. Then, the aqueous solution was used to measure the surface tension at 25°C by Wilhelmy method (which may be referred to as plate method or vertical plate method). Specifically, when a plate that is a measuring unit makes contact with the surface of the aqueous solution, the aqueous solution wets the plate upwards. At the time, the surface tension acts along the perimeter of the plate, and the force that pulls the plate into the aqueous solution generates. The pulling force F (force that acts on the plate, measuring force) is read, and the surface tension r is determined by the following formula. In the formula, L represents the perimeter (m) of the plate, and θ represents the contact angle of the plate and the aqueous solution. r = F/(L×cosθ) [formula]
The surface tension may be measured using a commercially available measurement device, such as static surface tension measurement system (manufactured by DKSH Japan, under the model number of TD 1C or TD 3).
Each dispersing agent used in the examples and comparative examples was diluted with water to prepare an aqueous solution of the dispersing agent consisting of: 0.1% by mass of the anionic dispersion agent, relative to the total mass of the aqueous solution; and water. Then, the resultant aqueous solution of the dispersing agent was used to measure the surface tension at 25°C by Wilhelmy method.

One may read the surface tension as the work needed to enlarge the surface of a liquid by unit area.

Consider `CCCCC(CC)COCCOCCOP(=O)([O-])O.[Na+]` [Example D-4, Polyoxyalkylene alkylether phosphoric acid ester], for which the “surface tension at 25°C” value turned out to be 30.7 mN/m.

As to “Ammonium polyoxyethylene alkylether sulfate [Example D-6]”, the “surface tension at 25°C” value stood at 38.8 mN/m. In addition, for the setting “listed as compound (II-1)”, the “surface tension at 25°C” value worked out at 30.7 mN/m.
